Where two headings read alike, the source gives them in different places.
Legend:
[1] = Pharmacokinetic studies in rat (i.v.); format: in vivo; conditions: male, Sprague-Dawley, plasma; for concentration at 0.25 h / concentration at 1 h / concentration at 4 h: intravenous, dose per Dose column (1.32-2.09 mg/kg); for half-life / AUC(0-t): iv, rat plasma, i.v., dose per Dose column; for half-life: estimated from 2 points only
Protocol: Animals: Male Sprague-Dawley rats (˜225-350 g) from Charles River Labs were acclimatized for a minimum of 5 days prior to start of study procedures. Body weights were recorded on the day of dosing.
Any abnormalities were documented including presence/absence of wet dog shakes/back muscle contractions (WDS/BMC).
Dosing: Formulations were administered intravenously (i.v.) via the tail vein using a 25 G needle connected to a 1 cc syringe.
The exemplary compounds of Formula (I) were freshly prepared at the appropriate concentrations in 5% Tween-80 in saline.
Blood collection time (h): 0, […], 1 and 4
Volume/time-point: ˜0.25 mL (saphenous vein)
Instrumentation: AB Sciex QTRAP 4000 or 6500 MS/MS system equipped with an LC system with a binary pump, a solvent degasser, a thermostated column compartment, and a multiplate autosampler.
Analysis software: Phoenix® WinNonlin® 8.3 (Pharsight, Certara, Mountainview, CA).
Analysis methods: non-compartmental analysis, linear up/log down trapezoidal rule.
PK parameters: t1/2 and AUC0-tlast was estimated.
The Compounds of Formula (I) were freshly prepared at the appropriate concentrations in 5% Tween-80 in saline.
Instrumentation: AB Sciex QTRAP 4000 or 6500 MS/MS system equipped with an LC system with a binary pump, a solvent degasser, a thermostated column compartment and a multiplate autosampler.
PK parameters: t1/2 and AUC0-tlast will be estimated.

[2] = Liver microsomes stability, human; format: in vitro ADME; conditions: human liver microsomes
[3] = first animal (R07/R04/R01/R10), read-out: Plasma concentration
[4] = mean of 3 rats, read-out: Plasma concentration, Mean ± SD
[5] = second animal (R08/R05/R02/R11), read-out: Plasma concentration
[6] = third animal (R09/R06/R03/R12), read-out: Plasma concentration
[7] = 2 μM compound, 0.5 mg/mL microsomes

Which concentration at 0.25 h [1, 3] does the source give for `[2H]C([2H])(c1c[nH]c2ccc(OCCCCN3C(=O)c4ccccc4C3=O)cc12)[C@H]1CCCN1C([2H])([2H])[2H]` [(R) I-244, (R)-2-(4-((3-((1-(Methyl-d3)pyrrolidin-2-yl)methyl-d2)-1H-indol-5-yl)oxy)butyl)isoindoline-1,3-dione] here?
Its concentration at 0.25 h is 252 ng/mL.

What about the concentration at 0.25 h [1, 4] of the same molecule?
Its concentration at 0.25 h is 292 ± 59.4 ng/mL.

What about the concentration at 0.25 h [1, 5] of the same molecule?
The concentration at 0.25 h was 360 ng/mL.

What about the concentration at 0.25 h [1, 6] of the same molecule?
The concentration at 0.25 h was 263 ng/mL.

What about the concentration at 1 h [1, 3] of the same molecule?
Its concentration at 1 h is 132 ng/mL.

And the concentration at 1 h [1, 4]?
The concentration at 1 h was 130 ± 21.6 ng/mL.

And the concentration at 1 h [1, 5]?
Its concentration at 1 h is 150 ng/mL.

And the concentration at 1 h [1, 6]?
The concentration at 1 h was 107 ng/mL.

And the concentration at 4 h [1, 3]?
The concentration at 4 h was 20.7 ng/mL.

What about the concentration at 4 h [1, 4] of the same molecule?
Its concentration at 4 h is 22 ± 1.63 ng/mL.

What about the concentration at 4 h [1, 5] of the same molecule?
The concentration at 4 h was 23.8 ng/mL.

And the concentration at 4 h [1, 6]?
Its concentration at 4 h is 21.4 ng/mL.

What about the half-life ([1]; first animal (R07/R04/R01/R10), read-out: Apparent t1/2 (converted)) of the same molecule?
The half-life was 1.06 h.

And the half-life ([1]; mean of 3 rats, read-out: Apparent t1/2, Mean ± SD (converted))?
The half-life was 1.05 ± 0.0494 h.

What about the half-life ([1]; second animal (R08/R05/R02/R11), read-out: Apparent t1/2 (converted)) of the same molecule?
The half-life was 1 h.

And the half-life ([1]; third animal (R09/R06/R03/R12), read-out: Apparent t1/2 (converted))?
Its half-life is 1.1 h.

And the AUC(0-t) ([1]; first animal (R07/R04/R01/R10), read-out: AUC0-tlast)?
Its AUC(0-t) is 390 ng·h/mL.

What about the AUC(0-t) ([1]; mean of 3 rats, read-out: AUC0-tlast, Mean ± SD) of the same molecule?
Its AUC(0-t) is 415 ± 65.7 ng·h/mL.

And the AUC(0-t) ([1]; second animal (R08/R05/R02/R11), read-out: AUC0-tlast)?
The AUC(0-t) was 490 ng·h/mL.

What about the AUC(0-t) ([1]; third animal (R09/R06/R03/R12), read-out: AUC0-tlast) of the same molecule?
Its AUC(0-t) is 366 ng·h/mL.

And the “Predicted hepatic CL” value [2]?
Its value is 19.32 mL/min/kg.

What about the half-life at 2 μM [2, 7] of the same molecule?
Its half-life at 2 μM is 5.98 min.

What about the microsomal CLint at 2 μM [2, 7] of the same molecule?
Its microsomal CLint at 2 μM is 232 µL/min/mg.

And the “Remaining Percentage” value ([2]; With Cofactors, 0 min)?
The value was 100.00%.

What about the “Remaining Percentage” value ([2]; With Cofactors, 30 min) of the same molecule?
Its value is 3.10%.

And the “Remaining Percentage” value ([2]; With Cofactors, 60 min)?
Its value is 0.00%.

What about the “Remaining Percentage” value ([2]; Without Cofactors, 0 min) of the same molecule?
Its value is 100.00%.

And the “Remaining Percentage” value ([2]; Without Cofactors, 30 min)?
Its value is 94.44%.

And the “Remaining Percentage” value ([2]; Without Cofactors, 60 min)?
Its value is 88.07%.

And the CLint scaled at 2 μM ([2]; read-out: Scaled-up CLint)?
Its CLint scaled at 2 μM is 290 mL/min/kg.

— patent publication US12606543B2, “Indole derivatives as serotonergic agents useful for the treatment of disorders related thereto” (priority 2023, dated 2026)
